Reference: PubChem BioAssay AID330 (DTP/NCI, 2004)
“And” between values parts separate entries of the source, which are not always exact repeats. Equal entries are not always repeated. Inconclusive results and toxic doses are left out. How the source made its calls: active means survival T/C of 150% or more; inactive means T/C below 125% in these data.

Test system: P388 leukemia ip, CD2F1 mice, survival T/C
Assay: NCI In Vivo Anticancer Drug Screen. Data for tumor model P388 Leukemia (intraperitoneal) in CD2F1 (CDF1) mice
Details: endpoint: median survival time, higher = longer survival
In short: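 Mice carrying the transplanted tumor received test compound or vehicle. Survival was recorded in each group, and the value is the treated-group measurement divided by that of the vehicle-treated control group.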

[1] = dose: 50.0 mg/kg/injection, schedule: Q01DX005 (ip), vehicle: Klucel (hydroxypropylcellulose) (HPC)
[2] = dose: 100.0 mg/kg/injection, schedule: Q01DX005 (ip), vehicle: Klucel (hydroxypropylcellulose) (HPC)
[3] = dose: 200.0 mg/kg/injection, schedule: Q01DX005 (ip), vehicle: Klucel (hydroxypropylcellulose) (HPC)
[4] = dose: 100.0 mg/kg/injection, schedule: Q04DX003 (ip), vehicle: saline
[5] = dose: 200.0 mg/kg/injection, schedule: Q04DX003 (ip), vehicle: saline
[6] = dose: 100.0 mg/kg/injection, schedule: Q04DX002 (ip), vehicle: saline with Tween-80
[7] = dose: 200.0 mg/kg/injection, schedule: Q04DX002 (ip), vehicle: saline with Tween-80
[8] = dose: 400.0 mg/kg/injection, schedule: Q04DX002 (ip), vehicle: saline with Tween-80
[9] = dose: 50.0 mg/kg/injection, schedule: Q01DX009 (ip), vehicle: saline
[10] = dose: 100.0 mg/kg/injection, schedule: Q01DX009 (ip), vehicle: saline
[11] = dose: 60.0 mg/kg/injection, schedule: Q01DX005 (ip), vehicle: saline with Tween-80
[12] = dose: 120.0 mg/kg/injection, schedule: Q01DX005 (ip), vehicle: saline with Tween-80
[13] = dose: 50.0 mg/kg/injection, schedule: Q01DX005 (ip), vehicle: saline with Tween-80
[14] = dose: 100.0 mg/kg/injection, schedule: Q01DX005 (ip), vehicle: saline with Tween-80
[15] = dose: 200.0 mg/kg/injection, schedule: Q01DX005 (ip), vehicle: saline with Tween-80
[16] = dose: 100.0 mg/kg/injection, schedule: Q01DX009 (ip), vehicle: Klucel (hydroxypropylcellulose) (HPC)
[17] = dose: 200.0 mg/kg/injection, schedule: Q01DX009 (ip), vehicle: Klucel (hydroxypropylcellulose) (HPC)
[18] = dose: 50.0 mg/kg/injection, schedule: Q01DX009 (ip), vehicle: saline with Tween-80
[19] = dose: 100.0 mg/kg/injection, schedule: Q01DX009 (ip), vehicle: saline with Tween-80

Measured: T/C

O=C(O)/C=C/C(=O)N1Cc2cc3ccccc3nc2C1
inactive: dose: 1.56 mg/kg/injection, schedule: Q01DX009 (ip), vehicle: saline with Tween-80 100 % of control and 101 % of control and 104 % of control | dose: 3.13 mg/kg/injection, schedule: Q01DX009 (ip), vehicle: saline with Tween-80 99 % of control and 103 % of control and 117 % of control | dose: 6.25 mg/kg/injection, schedule: Q01DX009 (ip), vehicle: saline with Tween-80 101 % of control and 94 % of control | dose: 8.0 mg/kg/injection, schedule: Q01DX009 (ip), vehicle: saline with Tween-80 91 % of control | dose: 12.5 mg/kg/injection, schedule: Q01DX009 (ip), vehicle: saline with Tween-80 98 % of control and 99 % of control and 107 % of control | dose: 16.0 mg/kg/injection, schedule: Q01DX009 (ip), vehicle: saline with Tween-80 94 % of control | dose: 32.0 mg/kg/injection, schedule: Q01DX009 (ip), vehicle: saline with Tween-80 99 % of control | dose: 64.0 mg/kg/injection, schedule: Q01DX009 (ip), vehicle: saline with Tween-80 94 % of control

Cc1nn(-c2ccccc2)c2c1c(=O)c1ccccc1c(=O)n2C
inactive: [1] 105 % of control | [2] 104 % of control | [3] 94 % of control

Cc1ccc(CNc2ccc(C)c(Cl)c2)cc1
inactive: dose: 100.0 mg/kg/injection, schedule: Q04DX003 (ip), vehicle: other 100 % of control | dose: 200.0 mg/kg/injection, schedule: Q04DX003 (ip), vehicle: other 100 % of control | dose: 400.0 mg/kg/injection, schedule: Q04DX003 (ip), vehicle: other 100 % of control

COc1ccccc1C1NC(c2ccccc2OC)C2CCCC1C2=O (stereo unspecified)
inactive: [4] 88 % of control | [5] 88 % of control | dose: 400.0 mg/kg/injection, schedule: Q04DX003 (ip), vehicle: saline 90 % of control

CC(C)(O)c1ccccc1Sc1ccccc1C(C)(C)O
inactive: dose: 100.0 mg/kg/injection, schedule: Q01DX001 (ip), vehicle: saline with Tween-80 102 % of control | dose: 200.0 mg/kg/injection, schedule: Q01DX001 (ip), vehicle: saline with Tween-80 103 % of control | dose: 400.0 mg/kg/injection, schedule: Q01DX001 (ip), vehicle: saline with Tween-80 95 % of control

CC1OC(O[C@H]2C[C@](O)(C(C)O)Cc3c(O)c4c(c(O)c32)C(=O)c2c(O)cccc2C4=O)CC(NC=O)C1O (stereo partly specified)
inactive: dose: 0.16 mg/kg/injection, schedule: Q04DX003 (ip), vehicle: water 118 % of control | dose: 0.32 mg/kg/injection, schedule: Q04DX003 (ip), vehicle: water 113 % of control | dose: 0.33 mg/kg/injection, schedule: Q04DX003 (ip), vehicle: water 103 % of control | dose: 0.65 mg/kg/injection, schedule: Q04DX003 (ip), vehicle: water 111 % of control | dose: 1.29 mg/kg/injection, schedule: Q04DX003 (ip), vehicle: water 115 % of control | dose: 2.58 mg/kg/injection, schedule: Q04DX003 (ip), vehicle: water 123 % of control

O=C1CC2OCC=C3CN4CCC56c7ccccc7N1C5C2C3CC46 (stereo unspecified) (tested in a mixture with another compound)
inactive: dose: 0.38 mg/kg/injection, schedule: Q01DX009 (ip), vehicle: saline + alcohol 100 % of control | dose: 0.75 mg/kg/injection, schedule: Q01DX009 (ip), vehicle: saline + alcohol 109 % of control | dose: 1.5 mg/kg/injection, schedule: Q01DX009 (ip), vehicle: saline + alcohol 95 % of control

COc1cc(C2(O)c3cc4c(cc3CCN2C)OCO4)cc(OC)c1OC (stereo unspecified)
inactive: [1] 97 % of control | [2] 96 % of control | [3] 90 % of control

CSc1ccccc1C(=O)O
inactive: [6] 104 % of control | [7] 101 % of control | [8] 102 % of control

CC(=O)OC1CC[N+](C)(Cc2ccccc2)C1 (stereo unspecified)
inactive: [9] 107 % of control | [10] 91 % of control

Nc1nc(N)c(SC(F)(F)F)c(Cl)n1
inactive: [11] 100 % of control | [12] 103 % of control

Cc1ccc(N2CCOS(=O)OCC2)cc1
inactive: [13] 101 % of control | [14] 98 % of control | [15] 101 % of control

COc1cccc(-c2nsc(=O)o2)c1
inactive: [16] 108 % of control | [17] 109 % of control

c1ccc2c(c1)Cc1ccnnc1-2
inactive: [13] 103 % of control | [14] 103 % of control | [15] 92 % of control

Oc1ccccc1C=Nc1c(Cl)cc(Cl)cc1Cl
inactive: [1] 105 % of control | [2] 109 % of control | [3] 107 % of control

O=C(NCCCC1NC(=O)/C(=C(O)/C=C/C=C/c2ccccc2)C1=O)OCc1ccccc1 (stereo unspecified)
inactive: [13] 88 % of control | [15] 92 % of control

Cc1ccc(S(=O)(=O)N(C=O)c2ccccc2)cc1
inactive: [18] 90 % of control | [19] 90 % of control

COc1ccc2c(c1)CC(CN1CCC3(CC1)C(=O)NCN3c1ccccc1)O2 (stereo unspecified)
inactive: [18] 104 % of control | [19] 101 % of control | dose: 200.0 mg/kg/injection, schedule: Q01DX009 (ip), vehicle: saline with Tween-80 100 % of control

CNC(=O)O/N=C/C(C)(C)SC
inactive: dose: 0.11 mg/kg/injection, schedule: Q01DX005 (ip), vehicle: Klucel (hydroxypropylcellulose) (HPC) 101 % of control | dose: 0.23 mg/kg/injection, schedule: Q01DX005 (ip), vehicle: Klucel (hydroxypropylcellulose) (HPC) 101 % of control | dose: 0.46 mg/kg/injection, schedule: Q01DX005 (ip), vehicle: Klucel (hydroxypropylcellulose) (HPC) 101 % of control

N#C/C(=C\c1c(Cl)cccc1Cl)c1nc(-c2ccc(Cl)cc2)cs1
inactive: [9] 92 % of control | [10] 92 % of control | dose: 200.0 mg/kg/injection, schedule: Q01DX009 (ip), vehicle: saline 105 % of control

CC(C)CC(NC(=O)CNC(=O)/C=C/c1ccco1)C(N)=O (stereo unspecified)
inactive: [13] 106 % of control | [14] 102 % of control | [15] 90 % of control

O=S(=O)(/C=C/c1cccnc1)/C=C/c1cccnc1
inactive: dose: 25.0 mg/kg/injection, schedule: Q01DX009 (ip), vehicle: saline with Tween-80 106 % of control | [18] 100 % of control

COC(=O)/C=C/c1cccn1C(=O)c1c(Cl)cccc1Cl
inactive: [13] 97 % of control | [14] 98 % of control | [15] 87 % of control

CCCCC/C=C\C/C=C\CCCCCCCC(=O)O
inactive: dose: 50.0 mg/kg/injection, schedule: Q01DX009 (ip), vehicle: Klucel (hydroxypropylcellulose) (HPC) 93 % of control | [16] 112 % of control | [17] 107 % of control | dose: 400.0 mg/kg/injection, schedule: Q01DX009 (ip), vehicle: Klucel (hydroxypropylcellulose) (HPC) 101 % of control

O=S(=O)(C(Br)S(=O)(=O)C(F)(F)C(F)(F)C(F)(F)C(F)(F)F)C(F)(F)C(F)(F)C(F)(F)C(F)(F)F
inactive: dose: 25.0 mg/kg/injection, schedule: Q01DX001 (ip), vehicle: saline 95 % of control | dose: 50.0 mg/kg/injection, schedule: Q01DX001 (ip), vehicle: saline 95 % of control | dose: 100.0 mg/kg/injection, schedule: Q01DX001 (ip), vehicle: saline 100 % of control and 101 % of control

COC(=O)C1CC=CCC1C(=O)OC (stereo unspecified)
inactive: [6] 107 % of control | [7] 106 % of control | [8] 100 % of control

CCOC(=O)C1=C(O)C[C@]2(O)C3CC=C(C)[C@@H]4CCO[C@](OC)(C[C@H]2C1)[C@]34C(=O)OC (stereo partly specified)
inactive: [13] 100 % of control | [14] 96 % of control

COC(=O)C1=C(C)NC(C)=C(C(=O)OC)C1c1ccc(NC(C)=O)cc1
inactive: [11] 113 % of control | [12] 111 % of control | dose: 240.0 mg/kg/injection, schedule: Q01DX005 (ip), vehicle: saline with Tween-80 113 % of control

Cc1cc(Cl)ccc1N1C(=O)[N+](C)(C)N=C1[O-]
inactive: [4] 103 % of control | [5] 103 % of control

COc1cc(C(=O)c2cc3c(cc2C=O)OCO3)cc(OC)c1OC
inactive: [1] 95 % of control | [2] 90 % of control | [3] 99 % of control
